# Measurements taken from patent publication US12180187B2, “1-phenyl-5-azinylpyrazolyl-3-oxyalkyl acids and their use for controlling unwanted plant growth” (BAYER AKTIENGESELLSCHAFT, priority 2019, dated 2024).
# Experiments:
# [1] = test system: DIGSA; test: Pre-emergence action against DIGSA, 1280 g/ha; format: in vivo, Digitaria sanguinalis; conditions: visual scoring after about 3 weeks vs untreated controls, 100% = plants have died, 0% = like control plants
# Summary of the method: (§1)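 Compound applied as WP or EC in aqueous spray (0.5% additive, 600 L/ha) to the surface of sandy loam covering freshly sown seeds. After about 3 weeks under good greenhouse conditions, damage is given as visual percentage, 100% meaning plant death.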
# [2] = test system: POLCO; test: Pre-emergence action at 320 g/ha against POLCO; format: in vivo, Fallopia convolvulus (Polygonum convolvulus); conditions: visual scoring after about 3 weeks vs untreated controls
# Summary of the method: (§2)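 Compounds were sprayed onto soil over sown seeds as emulsions or suspensions with 0.5% additive at a water rate of 600 l/ha. After about 3 weeks in the greenhouse, effect was rated visually as percent (100% = died).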
# [3] = test system: DIGSA; test: Pre-emergence action at 320 g/ha against DIGSA; format: in vivo, Digitaria sanguinalis; conditions: visual scoring after about 3 weeks vs untreated controls
# Summary of the method: as §2
# [4] = test system: KCHSC; test: Pre-emergence action against KCHSC, 1280 g/ha; format: in vivo, Bassia scoparia; conditions: scored visually after about 3 weeks vs untreated controls (100% = plants have died)
# Summary of the method: as §1
# [5] = test system: SETVI; test: Pre-emergence action at 320 g/ha against SETVI; format: in vivo, Setaria viridis; conditions: visual scoring after about 3 weeks vs untreated controls
# Summary of the method: as §2
# [6] = test system: AVEFA; test: Post-emergence action at 320 g/ha against AVEFA; format: in vivo; conditions: visual rating about 3 weeks after treatment vs untreated controls
# Description: Accordingly, the compounds of the invention have good herbicidal action against a broad spectrum of weed grasses and broad-leaved weeds and are therefore suitable for controlling unwanted vegetation by the post-emergence method. • b) Seeds of monocotyledonous and dicotyledonous weeds and crop plants are placed in sandy loam in plastic or organic planting pots, covered with soil and cultivated in a greenhouse under controlled growth conditions. 2 to 3 weeks after sowing, the test plants are treated at the one-leaf stage. The compounds of the invention, formulated in the form of wettable powders (WP) or as emulsion concentrates (EC), are then sprayed onto the green parts of the plants as aqueous suspension or emulsion with addition of 0.5% additive at a water application rate of 600 l/ha (converted). After the test plants have been kept in the greenhouse under optimum growth conditions for about 3 weeks, the activity of the preparations is rated visually in comparison to untreated controls. For example, 100% activity=the plants have died, 0% activity=like control plants. Tables 39 to 49 below show the effects of selected compounds of the general formula (I) according to Tables 1 and 2 on various harmful plants and at an application rate corresponding to 320 g/ha, which were obtained by the experimental procedure mentioned above.
# [7] = test system: STEME; test: Pre-emergence action against STEME, 1280 g/ha; format: in vivo, Stellaria media; conditions: scored visually after about 3 weeks vs untreated controls (100% = plants have died)
# Summary of the method: as §1
# [8] = test system: AMARE; test: Post-emergence action against AMARE, 1.28 kg/ha; format: in vivo, Amaranthus retroflexus; conditions: dosage 1280 g/ha, visual rating about 3 weeks after treatment vs untreated controls (100% = plants died)
# Summary of the method: (§3)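 Weeds grown in sandy loam in a greenhouse were sprayed at the one-leaf stage, 2–3 weeks after sowing, with WP or EC formulations in water containing 0.5% additive at 600 L/ha. About 3 weeks later, damage was scored visually versus untreated controls (0% = like control, 100% = dead).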
# [9] = test system: VERPE; test: Post-emergence action against VERPE, 1.28 kg/ha; format: in vivo, Veronica persica; conditions: dosage 1280 g/ha, visual rating about 3 weeks after treatment vs untreated controls (100% = plants died)
# Summary of the method: as §3
# [10] = test system: AVEFA; test: Pre-emergence action at 320 g/ha against AVEFA; format: in vivo; conditions: visual scoring after about 3 weeks vs untreated controls
# Description: b) Seeds of monocotyledonous and dicotyledonous weed plants and crop plants are placed in plastic or organic planting pots and covered with soil. The compounds of the invention, formulated in the form of wettable powders (WP) or as emulsion concentrates (EC), are then applied onto the surface of the covering soil as aqueous suspension or emulsion with addition of 0.5% additive at a water application rate of 600 l/ha (converted). After the treatment, the pots are placed in a greenhouse and kept under good growth conditions for the trial plants. After about 3 weeks, the effect of the preparations is scored visually in comparison with untreated controls as percentages. For example, 100% activity=the plants have died, 0% activity=like control plants. Tables 13 to 26 below show the effects of selected compounds of the general formula (I) on various harmful plants and at an application rate corresponding to 320 g/ha, which were obtained by the experimental procedure mentioned above.
# [11] = test system: MATIN; test: Pre-emergence action against MATIN, 1280 g/ha; format: in vivo, Tripleurospermum inodorum (Matricaria inodora); conditions: scored visually after about 3 weeks vs untreated controls (100% = plants have died)
# Summary of the method: as §1
# [12] = test system: ECHCG; test: Pre-emergence action against ECHCG, 1280 g/ha; format: in vivo, Echinochloa crus-galli; conditions: visual scoring after about 3 weeks vs untreated controls, 100% = plants have died, 0% = like control plants
# Summary of the method: as §1
# [13] = test system: POAAN; test: Post-emergence action against POAAN, 1.28 kg/ha; format: in vivo, Poa annua; conditions: dosage 1280 g/ha, visual rating about 3 weeks after treatment vs untreated controls
# Summary of the method: as §3
# [14] = test system: MATIN; test: Post-emergence action against MATIN, 1.28 kg/ha; format: in vivo, Tripleurospermum inodorum (Matricaria inodora); conditions: dosage 1280 g/ha, visual rating about 3 weeks after treatment vs untreated controls (100% = plants died)
# Summary of the method: as §3
# [15] = test system: AMARE; test: Pre-emergence action at 320 g/ha against AMARE; format: in vivo, Amaranthus retroflexus; conditions: visual scoring after about 3 weeks vs untreated controls
# Summary of the method: as §2
# [16] = test system: ALOMY; test: Pre-emergence action at 320 g/ha against ALOMY; format: in vivo, Alopecurus myosuroides; conditions: scored visually after about 3 weeks vs untreated controls (100% = plants have died)
# Summary of the method: as §2
# [17] = test system: POAAN; test: Pre-emergence action against POAAN, 1280 g/ha; format: in vivo, Poa annua; conditions: visual scoring after about 3 weeks vs untreated controls, 100% = plants have died, 0% = like control plants
# Summary of the method: as §1
# [18] = test system: MATIN; test: Pre-emergence action at 320 g/ha against MATIN; format: in vivo, Tripleurospermum inodorum (Matricaria inodora); conditions: visual scoring after about 3 weeks vs untreated controls
# Summary of the method: as §2
# [19] = test system: SETVI; test: Pre-emergence action against SETVI, 1280 g/ha; format: in vivo, Setaria viridis; conditions: visual scoring after about 3 weeks vs untreated controls, 100% = plants have died, 0% = like control plants
# Summary of the method: as §1
# [20] = test system: VIOTR; test: Pre-emergence action at 320 g/ha against VIOTR; format: in vivo, Viola tricolor; conditions: dosage 320 g/ha
# Summary of the method: as §2
# [21] = test system: LOLRI; test: Pre-emergence action against LOLRI, 1280 g/ha; format: in vivo, Lolium rigidum; conditions: visual scoring after about 3 weeks vs untreated controls, 100% = plants have died, 0% = like control plants
# Summary of the method: as §1
# [22] = test system: AMARE; test: Pre-emergence action against AMARE, 1280 g/ha; format: in vivo, Amaranthus retroflexus; conditions: scored visually after about 3 weeks vs untreated controls (100% = plants have died)
# Summary of the method: as §1
# [23] = test system: VERPE; test: Pre-emergence action at 320 g/ha against VERPE; format: in vivo, Veronica persica; conditions: visual scoring after about 3 weeks vs untreated controls
# Summary of the method: as §2
# [24] = test system: LOLRI; test: Pre-emergence action at 320 g/ha against LOLRI; format: in vivo, Lolium rigidum; conditions: visual scoring after about 3 weeks vs untreated controls
# Summary of the method: as §2
# [25] = test system: ALOMY; test: Pre-emergence action against ALOMY, 1280 g/ha; format: in vivo, Alopecurus myosuroides; conditions: visual scoring after about 3 weeks vs untreated controls, 100% = plants have died, 0% = like control plants
# Summary of the method: as §1
# [26] = test system: VERPE; test: Pre-emergence action against VERPE, 1280 g/ha; format: in vivo, Veronica persica; conditions: scored visually after about 3 weeks vs untreated controls (100% = plants have died)
# Summary of the method: as §1
# [27] = test system: KCHSC; test: Post-emergence action against KCHSC, 1.28 kg/ha; format: in vivo, Bassia scoparia; conditions: dosage 1280 g/ha, visual rating about 3 weeks after treatment vs untreated controls (100% = plants died)
# Summary of the method: as §3
# [28] = test system: STEME; test: Post-emergence action against STEME, 1.28 kg/ha; format: in vivo, Stellaria media; conditions: dosage 1280 g/ha, visual rating about 3 weeks after treatment vs untreated controls (100% = plants died)
# Summary of the method: as §3
# [29] = test system: ALOMY; test: Post-emergence action against ALOMY, 1.28 kg/ha; format: in vivo, Alopecurus myosuroides; conditions: dosage 1280 g/ha, visual rating about 3 weeks after treatment vs untreated controls
# Summary of the method: as §3
# [30] = test system: ECHCG; test: Post-emergence action against ECHCG, 1.28 kg/ha; format: in vivo, Echinochloa crus-galli; conditions: dosage 1280 g/ha, visual rating about 3 weeks after treatment vs untreated controls
# Summary of the method: as §3
# [31] = test system: ABUTH; test: Pre-emergence action against ABUTH, 1280 g/ha; format: in vivo, Abutilon theophrasti; conditions: scored visually after about 3 weeks vs untreated controls (100% = plants have died)
# Description: 1. Pre-Emergence Herbicidal Effect and Crop Plant Compatibility a) Seeds of mono- and dicotyledonous weed plants are placed in plastic pots in sandy loam soil (doubly sown with one species each of mono- or dicotyledonous weed plants per pot) and covered with soil. The compounds of the invention, formulated in the form of wettable powders (WP) or as emulsion concentrates (EC), are then applied onto the surface of the covering soil as aqueous suspension or emulsion with addition of 0.5% additive at a water application rate equivalent to 600 litres per hectare. After the treatment, the pots are placed in a greenhouse and kept under good growth conditions for the trial plants. After about 3 weeks, the effect of the preparations is scored visually in comparison with untreated controls as percentages. For example, 100% activity=the plants have died, 0% activity=like control plants. 1. Pre-Emergence Effectiveness Tables 1 to 12 below show the effects of selected compounds of the general formula (I) according to Tables 1 and 2 on various harmful plants and at an application rate corresponding to 1280 g/ha, which were obtained by the experimental procedure mentioned above.
# [32] = test system: SETVI; test: Post-emergence action against SETVI, 1.28 kg/ha; format: in vivo, Setaria viridis; conditions: dosage 1280 g/ha, visual rating about 3 weeks after treatment vs untreated controls
# Summary of the method: as §3
# [33] = test system: DIGSA; test: Post-emergence action against DIGSA, 1.28 kg/ha; format: in vivo, Digitaria sanguinalis; conditions: dosage 1280 g/ha, visual rating about 3 weeks after treatment vs untreated controls
# Summary of the method: as §3
# [34] = test system: LOLRI; test: Post-emergence action against LOLRI, 1.28 kg/ha; format: in vivo, Lolium rigidum; conditions: dosage 1280 g/ha, visual rating about 3 weeks after treatment vs untreated controls
# Summary of the method: as §3
SMILES,Pre-emergence action against DIGSA [1],Pre-emergence action against STEME [7],Post-emergence action against AMARE [8],Post-emergence action against VERPE [9],Pre-emergence action against MATIN [11],Pre-emergence action against ECHCG [12],Post-emergence action against POAAN [13],Post-emergence action against MATIN [14],Pre-emergence action against POAAN [17],Pre-emergence action against SETVI [19],Pre-emergence action against LOLRI [21],Pre-emergence action against AMARE [22],Pre-emergence action against ALOMY [25],Pre-emergence action against VERPE [26],Post-emergence action against ALOMY [29],Pre-emergence action against ABUTH [31],Post-emergence action against DIGSA [33],further results
C[C@@H](Oc1nn(-c2ccccc2F)c(-c2cncnc2)c1[N+](=O)[O-])C(=O)O [VI-016],100%,100%,100%,90%,100%,100%,100%,90%,100%,100%,100%,100%,90%,100%,–,–,–,Pre-emergence action against POLCO in % [2]: 90%; Pre-emergence action against DIGSA in % [3]: 100%; Pre-emergence action against KCHSC [4]: 100%; Pre-emergence action against SETVI in % [5]: 100%; Post-emergence action against AVEFA in % [6]: 90%; Pre-emergence action against AVEFA in % [10]: 80%; Pre-emergence action against AMARE in % [15]: 100%; Pre-emergence action at 320 g/ha against ALOMY in % [16]: 100%; Pre-emergence action against MATIN in % [18]: 100%; Pre-emergence action against VIOTR in % [20]: 100%; Pre-emergence action against VERPE in % [23]: 100%; Pre-emergence action against LOLRI in % [24]: 100%
CC(Oc1nn(-c2ccccc2F)c(-c2ccc(F)nc2)c1C(F)(F)F)C(=O)O (stereo not drawn) [VII-106],100%,100%,–,100%,90%,100%,100%,90%,100%,100%,100%,100%,100%,100%,100%,90%,100%,Post-emergence action against KCHSC [27]: 100%; Post-emergence action against STEME [28]: 100%; Post-emergence action against ECHCG [30]: 90%; Post-emergence action against SETVI [32]: 90%
COC(=O)[C@@H](C)Oc1nn(-c2ccccc2F)c(-c2cnc(F)c(F)c2)c1Br [VII-149],100%,100%,100%,90%,90%,–,100%,100%,100%,90%,100%,100%,100%,100%,100%,90%,100%,Post-emergence action against LOLRI [34]: 100%
